Experiments:
Assay type in all cases: physicochemical
[1] = Calcium binding efficiency, logK(β110) (Table 1); settings: one metal, one ligand, no protons
Text: (§1) The binding efficiencies may be expressed as a binding constant. A binding constant (also called formation constant or stability constant) is an equilibrium constant for the formation of a complex in solution. It is a measure of the strength of the interaction between the reagents that come together to form the complex. As an example, various stains may comprise catechins as shown in Formula (13).
(§2) In Table 1, the reaction between metals and ligands is described in terms of log K(β110). In this context, K, is the equilibrium constant for the reaction between ligands and metals. The higher K, the more metal is bound. This is illustrated in the following example.
(§3) β, represents the binding efficiency and receives some subscripts (βmlh) to indicate how many metals (m), ligands (l), and protons (h) respectively are involved.

[2] = Iron binding efficiency, logK(β110) (Table 1); settings: one metal, one ligand, no protons
Text: as §1, §2, §3

[3] = pKa of chelating agents (Table 1); settings: successive pKa values; (A)/(B) printed beside the catechin values
Text: Chelation is a type of bonding of ions and molecules to metal ions. It involves the formation or presence of two or more separate coordinate bonds between a ligand and a metal atom. Without being bound by theory, the stain removal effectiveness of a composition comprising one or more chelating agents may depend at least in part on the ability of the chelating agent(s) to bind to iron, which may be present in some stains, such as fruit or beverage stains. Several factors may impact a chelating agent's ability to bind to iron. These factors may include the pKa of the chelating agent compared to the wash pH, and the affinity of the chelating agent to bind with other metals, materials, or compositions in the wash.
Various embodiments may provide or employ a composition that comprises one or more chelating agents having a pKa that is near to or less than the wash pH. […] Various embodiments may also employ a wash liquor pH of about 10 or less, about 9.5 or less, less than about 9, preferably from about 6.5 to about 8.5, most preferably from about 7.0 to about 8.5. They may also include the step of maintaining the pH of the wash liquor at about 10 or less, about 9.5 or less, less than about 9, preferably from about 6.5 to about 8.5, most preferably from about 7.0 to about 8.5.

Ca^2+ logK(β110) [1]	Fe (III) logK(β110) [2]	pKa [3]	SMILES
6.7	14.7	8.7	CCOC(=O)c1cc(O)c(O)c(O)c1 [Ethyl Gallate]
6.7	14.7	8.7	COC(=O)c1cc(O)c(O)c(O)c1 [Methyl Gallate]

From patent US20260275242A1, “PHOSPHONATE-FREE CHELATING AGENTS AND METHODS FOR FABRIC CARE” (THE PROCTER & GAMBLE COMPANY, priority 2023, published 2026)
